Test results: ChEMBL document CHEMBL3352495, “Discovery of the 1,7-diazacarbazole class of inhibitors of checkpoint kinase 1” (Bioorg Med Chem Lett, 2014)

Experiments:
Type in all cases: ADME, organism-based
[1] = Half life in NCR mouse at 25 mg/kg, po administered as solution; set-up: dose 25 mg/kg, route oral; details: in vivo
[2] = Clearance in Sprague-Dawley rat at 1 mg/kg, iv; set-up: dose 1 mg/kg, route intravenous; details: in vivo
[3] = Half life in Sprague-Dawley rat at 1 mg/kg, iv; set-up: dose 1 mg/kg, route intravenous; details: in vivo
[4] = Half life in NCR mouse at 25 mg/kg, po administered as suspension; set-up: dose 25 mg/kg, route oral; details: in vivo
[5] = Oral bioavailability in Sprague-Dawley rat at 5 mg/kg administered as solution; details: in vivo
[6] = AUC in CD1 mouse at 5 mg/kg, po administered as suspension; set-up: dose 5 mg/kg, route oral; details: plasma
[7] = test system: Rattus norvegicus; assay: Dose normalized AUC in Sprague-Dawley rat at 1 mg/kg, iv; set-up: dose 1 mg/kg, route intravenous; details: in vivo
[8] = Oral bioavailability in NCR mouse at 25 mg/kg administered as suspension; details: in vivo
[9] = Oral bioavailability in CD1 mouse at 5 mg/kg administered as suspension; details: in vivo
[10] = Half life in CD1 mouse at 5 mg/kg, po administered as solution; set-up: dose 5 mg/kg, route oral; details: in vivo
[11] = test system: Rattus norvegicus; assay: Dose normalized AUC in Sprague-Dawley rat at 5 mg/kg, po administered as solution; set-up: dose 5 mg/kg, route oral; details: in vivo
[12] = Half life in CD1 mouse at 0.5 mg/kg, iv; set-up: dose 0.5 mg/kg, route intravenous; details: in vivo
[13] = AUC in NCR mouse at 25 mg/kg, po administered as suspension; set-up: dose 25 mg/kg, route oral; details: plasma
[14] = AUC in Sprague-Dawley rat at 5 mg/kg, po administered as solution; set-up: dose 5 mg/kg, route oral; details: plasma
[15] = Cmax in Sprague-Dawley rat at 5 mg/kg, po administered as solution; set-up: dose 5 mg/kg, route oral; details: in vivo
[16] = AUC in CD1 mouse at 5 mg/kg, po administered as solution; set-up: dose 5 mg/kg, route oral; details: plasma
[17] = Clearance in CD1 mouse at 0.5 mg/kg, iv; set-up: dose 0.5 mg/kg, route intravenous; details: in vivo
[18] = test system: Mus musculus; assay: Dose normalized AUC in CD1 mouse at 5 mg/kg, po administered as suspension; set-up: dose 5 mg/kg, route oral; details: in vivo
[19] = test system: Mus musculus; assay: Dose normalized AUC in CD1 mouse at 0.5 mg/kg, iv; set-up: dose 0.5 mg/kg, route intravenous; details: in vivo
[20] = Cmax in CD1 mouse at 5 mg/kg, po administered as suspension; set-up: dose 5 mg/kg, route oral; details: in vivo
[21] = Half life in CD1 mouse at 5 mg/kg, po administered as suspension; set-up: dose 5 mg/kg, route oral; details: in vivo
[22] = test system: Mus musculus; assay: Dose normalized AUC in NCR mouse at 25 mg/kg, po administered as suspension; set-up: dose 25 mg/kg, route oral; details: in vivo
[23] = AUC in CD1 mouse at 0.5 mg/kg, iv; set-up: dose 0.5 mg/kg, route intravenous; details: plasma
[24] = Half life in Sprague-Dawley rat at 5 mg/kg, po administered as solution; set-up: dose 5 mg/kg, route oral; details: in vivo
[25] = test system: Mus musculus; assay: Dose normalized AUC in NCR mouse at 25 mg/kg, po administered as solution; set-up: dose 25 mg/kg, route oral; details: in vivo
[26] = AUC in NCR mouse at 25 mg/kg, po administered as solution; set-up: dose 25 mg/kg, route oral; details: plasma
[27] = Cmax in NCR mouse at 25 mg/kg, po administered as solution; set-up: dose 25 mg/kg, route oral; details: in vivo
[28] = Cmax in NCR mouse at 25 mg/kg, po administered as suspension; set-up: dose 25 mg/kg, route oral; details: in vivo
[29] = Cmax in CD1 mouse at 5 mg/kg, po administered as solution; set-up: dose 5 mg/kg, route oral; details: in vivo
[30] = AUC in Sprague-Dawley rat at 1 mg/kg, iv; set-up: dose 1 mg/kg, route intravenous; details: plasma
[31] = Oral bioavailability in CD1 mouse at 5 mg/kg administered as solution; details: in vivo
[32] = test system: Mus musculus; assay: Dose normalized AUC in CD1 mouse at 5 mg/kg, po administered as solution; set-up: dose 5 mg/kg, route oral; details: in vivo
[33] = Oral bioavailability in NCR mouse at 25 mg/kg administered as solution; details: in vivo

half-life [1]: 2.1 h | clearance [2]: 27 mL/min/kg | half-life [3]: 1.8 h | half-life [4]: 4 h | bioavailability [5]: 62% | AUC [6]: 1.72 µM·h | AUC/dose [7]: 0.67 kg·h/L | bioavailability [8]: 55% | bioavailability [9]: 50% | half-life [10]: 1.6 h | AUC/dose [11]: 0.42 kg·h/L | half-life [12]: 5.8 h | AUC [13]: 9.37 µM·h | AUC [14]: 5.64 µM·h | Cmax [15]: 930 nM | AUC [16]: 1.85 µM·h | clearance [17]: 67 mL/min/kg | AUC/dose [18]: 0.13 kg·h/L | AUC/dose [19]: 0.25 kg·h/L | Cmax [20]: 200 nM | half-life [21]: 2.9 h | AUC/dose [22]: 0.14 kg·h/L | AUC [23]: 0.34 µM·h | half-life [24]: 2.3 h | AUC/dose [25]: 0.13 kg·h/L | AUC [26]: 8.46 µM·h | Cmax [27]: 2510 nM | Cmax [28]: 910 nM | Cmax [29]: 450 nM | AUC [30]: 1.81 µM·h | bioavailability [31]: 54% | AUC/dose [32]: 0.14 kg·h/L | bioavailability [33]: 50%
SMILES: CN1CCN(c2ccc(-c3cnc4[nH]c5cnc(C#N)cc5c4c3)cc2)CC1
